# Data taken from patent publication US11591355B2 (Peloton Therapeutics, Inc., priority 2017, dated 2023).
# Where two headings read alike, the source gives them in different places.
# Biological target: T1, Human CD73 (Homo sapiens, UniProt P21589)
# T1 construct: purchased R&D Systems; host or cells: CHO cells
# T1 sequence (P21589 27-549): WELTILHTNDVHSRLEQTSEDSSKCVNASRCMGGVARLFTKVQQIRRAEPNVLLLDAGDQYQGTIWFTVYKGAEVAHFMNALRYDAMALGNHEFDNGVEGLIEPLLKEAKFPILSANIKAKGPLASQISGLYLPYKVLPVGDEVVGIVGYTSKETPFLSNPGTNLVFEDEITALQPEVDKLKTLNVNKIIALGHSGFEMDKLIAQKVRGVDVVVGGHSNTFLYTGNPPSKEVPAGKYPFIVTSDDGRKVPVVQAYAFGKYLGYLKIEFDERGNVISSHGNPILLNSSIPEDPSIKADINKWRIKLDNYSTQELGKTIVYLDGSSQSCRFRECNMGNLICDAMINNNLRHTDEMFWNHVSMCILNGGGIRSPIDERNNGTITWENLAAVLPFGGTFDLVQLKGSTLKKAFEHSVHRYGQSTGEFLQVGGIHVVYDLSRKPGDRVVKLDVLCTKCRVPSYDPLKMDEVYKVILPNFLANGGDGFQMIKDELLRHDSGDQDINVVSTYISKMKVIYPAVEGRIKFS
# Assay: CD73 Enzyme Assay
# Format: biochemical
# [1] = 0.25 nM hCD73, 25 μM AMP, kinetic read at 360 nm, read-out: CD73 Enzyme Assay IC50
# [2] = read-out: CD73 Enzyme Assay IC50
Compound,IC50 [1] [nM],also measured
NS(=O)(=O)c1ccc(CNc2ncnc3c2ncn3[C@@H]2O[C@H](COCP(=O)(O)O)[C@@H](O)[C@H]2O)cc1 [Compound 59],–,IC50 [2]: > 1000 nM
O=P(O)(O)CS(=O)(=O)C[C@H]1O[C@@H](n2cnc3c(NCc4ccccc4)ncnc32)[C@H](O)[C@@H]1O [Compound 148],–,IC50 [2]: > 1000 nM
"O=P(O)(O)C(SC[C@H]1O[C@@H](n2cnc3c(NCc4ccccc4)ncnc32)[C@H](O)[C@@H]1O)c1ccccc1 (stereo partly drawn) [Compound 149, [[(2S,3S,5R)-5-[6-(benzylamino)purin-9-yl]-3,4-dihydroxy-tetrahydrofuran-2-yl]methylsulfanyl-phenylmethyl]phos-phonic acid]",> 1000,–
"O=P(O)(O)C(c1ccccc1)S(=O)(=O)C[C@H]1O[C@@H](n2cnc3c(NCc4ccccc4)ncnc32)[C@H](O)[C@@H]1O (stereo partly drawn) [Compound 150, [[(2S,3S,5R)-5-[6-(benzylamino)purin-9-yl]-3,4-dihydroxy-tetrahydrofuran-2-yl]methylsulfonyl-phenylmethyl]phos-phonic acid]",> 1000,–
"O=P(O)(O)CSC[C@H]1O[C@@H](n2cnc3c(NCc4ccccc4)ncnc32)[C@H](O)[C@@H]1O [Compound 151, [(2S,3S,5R)-5-[6-(benzylamino)purin-9-yl]-3,4-dihydroxy-tetrahydrofuran-2-yl]methylsulfanyl-methylphosphonic acid]",> 1000,–
"CC(C)(C)C(=O)OCOP(=O)(CS(=O)(=O)C[C@H]1O[C@@H](n2ccc3c(NC4CCCC4)nc(Cl)nc32)[C@H](O)[C@@H]1O)OCOC(=O)C(C)(C)C [Compound 165, (((((((2S,3S,4R,5R)-5-(2-chloro-4-(cyclopentylamino)-7H-pyrrolo[2,3-d]pyrimidin-7-yl)-3,4-dihydroxytetrahydrofuran-2-yl)methyl)sulfonyl)methyl)phosphoryl)bis(oxy))bis(methylene) bis(2,2-dimethylpropanoate)]",100 to 1000,–
"CC(C)(C)C(=O)OCOP(=O)(C[S+]([O-])C[C@H]1O[C@@H](n2ccc3c(NC4CCCC4)nc(Cl)nc32)[C@H](O)[C@@H]1O)OCOC(=O)C(C)(C)C (stereo partly drawn) [Compound 166, [[(2S,3S,4R,5R)-5-[2-chloro-4-(cyclopentyl-amino)pyrrolo[2,3-d]-pyrimidin-7-yl]-3,4-dihydroxy-tetrahydro-furan-2-yl]methyl-sulfinylmethyl-(2,2-dimethylpropanoyloxy-methoxy)phosphoryl]-oxymethyl 2,2-dimethylpropanoate]",> 1000,–
CCOP(=O)(COC[C@H]1O[C@@H](n2ccc3c(NC4CCCC4)nc(Cl)nc32)[C@H](O)[C@@H]1O)OCC [Compound 185],–,IC50: > 1000 nM
"CC(C)OC(=O)OCOP(=O)(COC[C@H]1O[C@@H](n2ccc3c(N4CC5CCCC5C4)nc(Cl)nc32)[C@H](O)[C@@H]1O)OCOC(=O)OC(C)C (stereo partly drawn) [Compound 208, [[(2R,3S,4R,5R)-5-[4-(3,3a,4,5,6,6a-hexa-hydro-1H-cyclopenta-[c]pyrrol-2-yl)-2-chloro-pyrrolo[2,3-d]-pyrimidin-7-yl]-3,4-dihydroxy-tetrahydro-furan-2-yl]methoxy-methyl-(isopropoxy-carbonyloxymethoxy)-phosphorl]oxymethyl isopropyl carbonate]",> 1000,–
"N#Cc1nc(NC2CCCC2)c2c(C#N)cn([C@@H]3O[C@H](COCP(=O)(O)O)[C@@H](O)[C@H]3O)c2n1 [Compound 210, [(2R,3S,4R,5R)-5-[2,5-dicyano-4-(cyclopentyl-amino)pyrrolo[2,3-d]-pyrimidin-7-yl]-3,4-dihydroxy-tetrahydro-furan-2-yl]methoxy-methylphosphonic acid]",100 to 1000,–
"CC(C)OC(=O)OCOP(=O)(COC[C@H]1O[C@@H](n2ccc3c(NC4CCCC4)nc(Cl)nc32)[C@H](O)[C@@H]1O)OCOC(=O)OC(C)C [Compound 214, [[(2R,3S,4R,5R)-5-[2-chloro-4-(cyclopentyl-amino)pyrrolo[2,3-d]-pyrimidin-7-yl]-3,4-dihydroxy-tetrahydro-furan-2-yl]methoxy-methyl-(isopropoxy-carbonyloxymethoxy)-phosphoryl]oxymethyl-isopropyl carbonate]",> 1000,–
O=P(COC[C@H]1O[C@@H](n2ccc3c(NC4CCCC4)nc(Cl)nc32)[C@H](O)[C@@H]1O)(Oc1ccccc1)Oc1ccccc1 [Compound 215],–,IC50: > 1000 nM
"C[C@@H](Nc1nc(Cl)nc2c1ncn2[C@@H]1O[C@H](COCP(=O)(O)O)[C@@H](O)[C@@]1(C)O)c1ccccc1 [Compound 216, [(2R,3R,4R,5R)-5-[2-chloro-6-[[(1R)-1-phenylethyl]amino]-purin-9-yl]-3,4-dihydroxy-4-methyl-tetrahydrofuran-2-yl]methoxymethyl-phosphonic acid]",> 1000,–
"O=P(O)(O)COC[C@H]1O[C@@H](n2ccc3c(N[C@H](CO)c4ccccc4)nc(Cl)nc32)[C@H](O)[C@@H]1O [Compound 217, [(2R,3S,4R,5R)-5-[2-chloro-4-[[(1S)-2-hydroxy-1-phenyl-ethyl]amino]pyrrolo-[2,3-d]pyrimidin-7-yl]-3,4-dihydroxy-tetrahydrofuran-2-yl]methoxymethyl-phosphonic acid]",100 to 1000,–
"CCOC(=O)[C@H](C)NP(=O)(COC[C@H]1O[C@@H](n2ccc3c(NC4CCCC4)nc(Cl)nc32)[C@H](O)[C@@H]1O)N[C@@H](C)C(=O)OCC [Compound 220, ethyl (2S)-2-[[[(2R,3S,4R,5R)-5-[2-chloro-4-(cyclo-pentylamino)pyrrolo-[2,3-d]pyrimidin-7-yl]-3,4-dihydroxy-tetra-hydrofuran-2-yl]-methoxymethyl-[[(1S)-2-ethoxy-1-methyl-2-oxo-ethyl]amino]-phosphoryl]amino]-propanoate]",> 1000,–

# Second part, led by results:
IC50 [1] [nM],Compound,also measured
100 to 1000,"O=P(O)(O)COC[C@H]1O[C@@H](n2cnc3c(N4CCCC4c4ccccc4)ncnc32)[C@H](O)[C@@H]1O (stereo partly drawn) [Compound 45, [(2R,3S,4R,5R)-3,4-dihydroxy-5-[6-(2-phenylpyrrolidin-1-yl)-purin-9-yl]tetrahydro-furan-2-yl]methoxy-methylphosphonic acid]",–
> 1000,"N#Cc1ncnc2c1ncn2[C@@H]1O[C@H](COCP(=O)(O)O)[C@@H](O)[C@H]1O [Compound 47, [(2R,3S,4R,5R)-5-(6-cyanopurin-9-yl)-3,4-dihydroxy-tetrahydro-furan-2-yl]methoxy-methylphosphonic acid]",–
> 1000,O=P(O)(O)COC[C@H]1O[C@@H](n2cnc3c(O)ncnc32)[C@H](O)[C@@H]1O [Compound 48],–
100 to 1000,"C[C@H](Nc1ncnc2c1ncn2[C@@H]1O[C@H](COCP(=O)(O)O)[C@@H](O)[C@H]1O)c1cccc(F)c1 [Compound 50, [(2R,3S,4R,5R)-5-[6-[[(1S)-1-(3-fluoro-phenyl)ethyl]amino]-purin-9-yl]-3,4-dihydroxy-tetrahydro-furan-2-yl]methoxy-methylphosphonic acid]",–
100 to 1000,"C[C@H](Nc1ncnc2c1ncn2[C@@H]1O[C@H](COCP(=O)(O)O)[C@@H](O)[C@H]1O)c1ccccc1F [Compound 51, [(2R,3S,4R,5R)-5-[6-[[(1S)-1-(2-fluoro-phenyl)ethyl]amino]-purin-9-yl]-3,4-dihydroxy-tetrahydro-furan-2-yl]methoxy-methylphosphonic acid]",–
> 1000,"O=P(O)(O)COC[C@H]1O[C@@H](n2cnc3c(-c4ccccc4F)ncnc32)[C@H](O)[C@@H]1O [Compound 53, [(2R,3S,4R,5R)-5-[6-(2-fluorophenyl)purin-9-yl]-3,4-dihydroxy-tetrahydrofuran-2-yl]methoxymethyl-phosphonic acid]",–
> 1000,"N#Cc1cccc(CNc2ncnc3c2ncn3[C@@H]2O[C@H](COCP(=O)(O)O)[C@@H](O)[C@H]2O)c1 [Compound 58, [(2R,3S,4R,5R)-5-[6-[(3-cyanophenyl)-methylamino]purin-9-yl]-3,4-dihydroxy-tetrahydrofuran-2-yl]-methoxymethylphos-phonic acid]",–
> 1000,NS(=O)(=O)c1cccc(CNc2ncnc3c2ncn3[C@@H]2O[C@H](COCP(=O)(O)O)[C@@H](O)[C@H]2O)c1 [Compound 63],–
> 1000,"O=P(O)(O)COC[C@H]1O[C@@H](n2cnc3c(NCc4cccc(CO)c4)ncnc32)[C@H](O)[C@@H]1O [Compound 64, [(2R,3S,4R,5R)-3,4-dihydroxy-5-[6-[[3-(hydroxymethyl)-phenyl]methylamino]-purin-9-yl]tetrahydro-furan-2-yl]methoxy-methylphosphonic acid]",–
> 1000,"NC(=O)c1cccc(CNc2ncnc3c2ncn3[C@@H]2O[C@H](COCP(=O)(O)O)[C@@H](O)[C@H]2O)c1 [Compound 65, [(2R,3S,4R,5R)-5-[6-[(3-carbamoylphenyl)-methylamino]purin-9-yl]-3,4-dihydroxy-tetrahydrofuran-2-yl]-methoxymethylphos-phonic acid]",–
> 1000,CS(=O)(=O)c1cccc(CNc2ncnc3c2ncn3[C@@H]2O[C@H](COCP(=O)(O)O)[C@@H](O)[C@H]2O)c1 [Compound 66],–
100 to 1000,"CNc1nc(C#N)nc2c1ccn2[C@@H]1O[C@H](COCP(=O)(O)O)[C@@H](O)[C@H]1O [Compound 118, [(2R,3S,4R,5R)-5-[2-cyano-4-(methyl-amino)pyrrolo[2,3-d]-pyrimidin-7-yl]-3,4-dihydroxy-tetrahydro-furan-2-yl]methoxy-methylphosphonic acid]",–
